Literature values as cited in patent EP0594592B1, “A GROWTH FACTOR IN […] ARTIFICIAL TRANSPLANTS” (Strid, Lars, priority 1990, dated 1997).

Key:
[1] = on a molar basis
thromboxane = details: result in words
[2] = test system: macrophages, monocytes, mast cells and capillary endothelial cells; details: result in words
blood platelets = details: result in words

copper complex of the tripeptide glycyl-L-histidyl-L-lysine [GHK-Cu^2+]
superoxide dismutase-like activity, rate constant relative to enzymatic Cu,Zn-superoxide dismutase [1]: about 25%
effect on the hormone thromboxane (thromboxane): inhibits
chemoattractive effect on cells necessary for wound-healing [2]: chemoattractive effect
aggregation of blood platelets (blood platelets): inhibits
fibroblasts synthesis of collagen (fibroblasts; at 10^-9M, result in words): almost doubles
increase in collagen synthesis (fibroblasts; cultures of fibroblasts, at 10^-9M): about 80%
peptide concentration at which stimulation of collagen synthesis is observed (as low as) (fibroblasts; cultures of fibroblasts, lowest concentration with stimulation): 10^-12 M
peptide concentration of maximum stimulation of collagen synthesis (fibroblasts; cultures of fibroblasts, maximal activity): 10^-9 M
